Source: patent US9885727B2, “Cell culture models for validating candidate compounds for use in treating COPD and other diseases” (THE TRUSTEES OF COLUMBIA UNIVERSITY IN THE CITY OF NEW YORK, priority 2010, dated 2018)
Values belong to the compound of their own block, whether it stands above or below them.

Tests used:
[1] = Stability of DES and IDS on acid hydrolysis (6N HCl, 110° C., 24 hrs), LC/MSMS; conditions: for Recovered, mean: 6N HCl at 110° C. for 24 hour; for stability through acid hydrolysis: 10, 5 and 1 ng/ml, HCl hydrolysis at 110° C. for 24 hrs
Experimental: The assay of total DES and IDS in biological fluids requires HCl hydrolysis at 110° C. to release DES and IDS from their crosslinked or peptide conjugates. We examined the stability of DES and IDS in three different concentrations (10, 5, and 1 ng/ml) during HCl hydrolysis at 110° C. for 24 hrs. The DES/IDS solutions resulting from the HCl treatment were subjected to LC/MSMS measurements of DES and IDS, which were compared with the measurements of the same concentrations of untreated DES and IDS to calculate the recovery by the acid treatment.

pro-MMP1 and pro-MMP3 = conditions: cited from earlier work
[2] = tested on: neutrophils and macrophages; conditions: cited from earlier work
[3] = tested on: elastases, including human metalloproteinase 12; conditions: cited from earlier work
[4] = tested on: smoke-induced elastic fiber injury; conditions: concurrent administration, within 3 months of smoke exposure; cited from earlier work
[5] = tested on: smoke-induced airspace enlargement; type: in vivo, DBA/2J mice
Experimental: Eight-week-old female DBA/2J mice (The Jackson Laboratory, Bar Harbor, Me.) were divided into two treatment groups as follows: Group 1 was treated with aerosolized HA, beginning 1 month following initiation of smoke exposure; Group 2 was treated with aerosolized water, beginning 1 month following initiation of smoke exposure. Groups 1 and 2 were exposed to smoke for 3 h per day, 5 days/week, for a period of 10 months. Group 1 was treated with a 0.1% solution of HA in water for 1 h prior to each smoking session. Group 2 received aerosolized water for a similar interval. At various intervals following initial smoke exposure, animals were euthanized to determine (1) DID content in bronchoalveolar lavage fluid (BALF) and whole lungs at 2, 4, 6, 8, and 10 months; (2) lung histopathology at 3, 6, and 10 months; and (3) airspace enlargement as measured by the mean linear intercept (MLI) at 3 months. […]
At 3, 6, and 10 months following initiation of smoke exposure, mice were asphyxiated with CO2 and their lungs were inflated in situ with 10% neutral-buffered formalin at a constant pressure of 20 cm H2O. […] Slide sections stained with hematoxylin and eosin were examined with the light microscope to determine histological changes and to quantify airspace diameter by the mean linear intercept method^16. […]

[6] = tested on: smoke-induced elastic fiber injury; assay: Mouse model of smoke-induced pulmonary emphysema: DID in BALF and whole lungs; type: in vivo, DBA/2J mice
Experimental: Eight-week-old female DBA/2J mice (The Jackson Laboratory, Bar Harbor, Me.) were divided into two treatment groups as follows: Group 1 was treated with aerosolized HA, beginning 1 month following initiation of smoke exposure; Group 2 was treated with aerosolized water, beginning 1 month following initiation of smoke exposure. Groups 1 and 2 were exposed to smoke for 3 h per day, 5 days/week, for a period of 10 months. Group 1 was treated with a 0.1% solution of HA in water for 1 h prior to each smoking session. Group 2 received aerosolized water for a similar interval. At various intervals following initial smoke exposure, animals were euthanized to determine (1) DID content in bronchoalveolar lavage fluid (BALF) and whole lungs at 2, 4, 6, 8, and 10 months; (2) lung histopathology at 3, 6, and 10 months; and (3) airspace enlargement as measured by the mean linear intercept (MLI) at 3 months.
Following administration of either aerosolized HA or water, the nebulizer was disconnected and the smoking machine (Model TE-10, Teague Enterprises, Davis, Calif.) was attached to the exposure chamber. Both treatment groups were exposed to cigarette smoke for a period of 3 h/day, 5 days/week. The smoking machine simultaneously burned two filtered research-grade cigarettes (type 2R4F, University of Kentucky). Each cigarette was puffed once per minute for 2 s at a flow rate of 1.05 LPM, yielding 35 cc of smoke. This cycle was repeated nine times before ejecting the cigarette and loading a new one. Proper flow rate was maintained by a vacuum pump that established negative pressure at the exhaust port.
Beginning 1 month following initial smoke exposure, Group 1 was administered a 0.1% solution of low-molecular-weight (150 kDa) streptococcal HA in water (Bayer, Shawnee, Kans.), using a Misty-Ox nebulizer (Vital Signs, Totowa, N.J.). Group 2 received aerosolized water alone. The nebulizer was connected to a heavy-duty air compressor that delivered a constant pressure of 30 psi. The aerosol entered the exposure chamber through an inflow port attached to the roof and was drawn through the chamber by negative pressure created by a vacuum pump connected to an exhaust port on the side wall. The chamber was large enough (28×19×15 in.) to permit the mice to remain in their cages while inhaling the aerosol, thereby minimizing direct handling of the animals.
The levels of the elastin-specific crosslinking amino acids, DID, were measured in both BALF and whole-lung tissues. Animals were asphyxiated with CO2 and their lungs were lavaged three times with 1-ml aliquots of Hanks' solution. Both cell-free lavage fluids and homogenized lung tissues were then hydrolyzed in 6 N HCl at 110° C. for 24 h, and the hydrolysates were filtered and evaporated to remove acid. DID were quantified by high-performance liquid chromatography and electrospray ionization mass spectrometry according to previously published procedures^11.

[7] = tested on: elastase-induced airspace enlargement; conditions: aerosol of 0.1% HA in water for 50 min prior to elastase; cited from earlier work
COPD patients [8] = assay: Tiotropium treatment of COPD patients: D/I in plasma, urine and sputum by LC/MS; type: in vivo, human
Experimental: COPD patients have elevated levels of D/I in plasma, urine and sputum, which might respond to prolonged bronchodilation. To determine if clinical effects of Tiotropium (TIO) affect tissue degradation of the lung in COPD, clinically stable patients with COPD (n=9) not on TIO prior to the study and at one month and a second month after initiating therapy were tested. Other anticholinergic bronchodilators were stopped prior to TIO, and other therapies/disease treatments were unchanged for the two months of study. To these patients, 18 mcg TIO was administered each 24 hours. D/I in plasma, urine and sputum were measured by liquid chromatography and mass spectrometry (LC/MS) prior to the study and at one month and two months after the study.

COPD patients [9] = assay: Spirometry in post-TIO therapy patients; type: in vivo, human; conditions: most post-TIO therapy patients
Text: The improvement in spirometric indices were usually concordant with levels of D/I in patients.

[10] = COPD patients, 18 mcg TIO each 24 hours, up to two months

- Recovered, mean ([1]; 1 ng/ml DES/IDS): 0.50 ng/mL
- Recovered, mean ([1]; 5 ng/ml DES/IDS): 2.42 ng/mL
- Recovered, mean ([1]; 10 ng/ml DES/IDS): 5.04 ng/mL
- stability through acid hydrolysis [1]: stable through acid hydrolysis
Compound: NC(CCCC[n+]1cc(CCC(N)C(=O)O)c(CCCC(N)C(=O)O)c(CCC(N)C(=O)O)c1)C(=O)O (stereo not drawn) [DES, Desmosine]

Compound: VGVAPG (Human) [elastin-derived hexapeptide isolated from ligamentum nuchae or aorta by porcine pancreatic elastase]
- pro-MMP1 and pro-MMP3 upregulation (pro-MMP1 and pro-MMP3): induce pro-MMP1 and pro-MMP3 upregulation
- chemoattractant activity [2]: chemoattractants for neutrophils and macrophages

Compound: NC(CCCC[n+]1cc(CCC(N)C(=O)O)cc(CCC(N)C(=O)O)c1CCCC(N)C(=O)O)C(=O)O (stereo not drawn) [IDS, Isodesmosine]
- Recovered, mean ([1]; 1 ng/ml DES/IDS): 0.48 ng/mL
- Recovered, mean ([1]; 5 ng/ml DES/IDS): 2.55 ng/mL
- Recovered, mean ([1]; 10 ng/ml DES/IDS): 5.37 ng/mL
- stability through acid hydrolysis [1]: stable through acid hydrolysis

- inflammatory response beyond that induced by smoke exposure ([5]; mouse, in vivo): no evidence of an inflammatory response
Compound: hyaluronan [HA]
- direct inhibition of elastases [3]: does not directly inhibit elastases
- elastolysis of elastic fibers with bound HA ([3]; in vitro, several types of elastase including human metalloproteinase 12): prevented elastolysis
- BALF DID levels [4]: significantly reduced
- mean linear intercept (MLI) ([5]; 3 months of smoke, HA treated for 2 months, smoke alone 58.4 μm, p<0.01): 42.6 μm
- difference in BALF DID, HA/Smoke vs Smoke-Only ([6]; 2 and 4 months of smoke exposure): not statistically significant
- BALF DID, level before the drop ([6]; HA/Smoke group, 0.1% aerosolized HA begun 1 month after start of smoke): 0.8 ng/mL
- BALF DID, level after the drop ([6]; HA/Smoke group, after 4 months of smoke exposure): less than 1 pg/ml
- BALF DID, HA-treated vs Smoke-Only ([6]; subsequent measurements (after 4 months)): significantly lower levels
- difference in lung DID, HA/Smoke vs Smoke-Only ([6]; whole lungs, 10-month period): not statistically significant
- airspace enlargement vs aerosolized water and elastase [7]: significantly less airspace enlargement

Compound: C[N+]1(C)[C@@H]2C[C@@H](OC(=O)C(O)(c3cccs3)c3cccs3)C[C@H]1[C@@H]1O[C@@H]12 [TIO, Tiotropium]
- patients with significant decrease in D/I levels in plasma (COPD patients [8]; [10]): 10 out of 12
- patients with significant decrease in D/I levels in sputum (COPD patients [8]; [10]): all 12 patients
- patients with significant decrease in D/I levels in urine (COPD patients [8]; [10]): 10 out of 12
- D/I levels in plasma, urine and sputum (COPD patients [8]; two months of treatment with TIO): significant reductions
- FVC, FEV1 and ratio of FEV1/FVC (COPD patients [9]): significant increase
- Residual Volume (RV) (COPD patients [9]): decreases
